Reference: article PMC5574609, “Potential role of an antimicrobial peptide, KLK in inhibiting lipopolysaccharide-induced macrophage inflammation” (PLoS ONE, 2017)
Bridge positions count the residues as written; N and C are the ends. Ends that are not written are not given here. Peptide text beside a SMILES is read from it.

Assays:
Assay type in all cases: cell-based, murine
[1] = tested on: NO production in LPS-stimulated RAW 264.7 cells; test: LPS-stimulated NO production (nitrite, Griess); conditions: peptide 1 µg/mL, LPS 1 µg/mL, 48 h, mean ± SD
Experimental: (§1) RAW 264.7 cells at 1×10^5 cells/well were stimulated with 1 μg/mL LPS (Escherichia coli 0111:B4; Sigma, St. Louis, MO, USA) in the presence or absence of various concentrations of the test peptide and then incubated at 37°C in 5% CO2 for 48 h. Indomethacin (10 μM; Sigma, St. Louis, MO, USA) was included as a positive control. Where appropriate, cells were pre-incubated with the test peptide for 1 h, and washed three times with sterile PBS before incubation with LPS (1 μg/mL; Sigma). Culture supernatant was collected and the nitrite (a stable breakdown product of NO) accumulated in culture supernatant was then determined by the Griess reagent system (Promega, Madison, USA). Briefly, 50 μL of culture supernatant was mixed with an equal volume of 1% sulfanilamide in 5% phosphoric acid. After incubation for 10 min at room temperature, 50 μL of 0.1% N-1-napthylethylenediamine dihydrochloride was added and incubated for another 10 min at room temperature. The absorbance was measured at 540 nm using a microplate reader (Rayto RT-2100C, China) and nitrite concentrations were determined using a sodium nitrite standard curve. The PGE2 levels in culture medium were quantified by enzyme-immunoassay (R&D Systems, Minneapolis, MN, USA) according to the manufacturer’s instructions.

[2] = tested on: IL-1β production in LPS-stimulated RAW 264.7 cells; test: IL-1β production, sandwich ELISA; conditions: LPS 1 µg/mL, 72 h, mean ± SD
Experimental: (§2) The pro-inflammatory cytokines (IL-1β and TNF-α)were determined by sandwich enzyme-linked immunosorbent assay (ELISA). RAW 264.7 cells (1×10^5 cells/well) were seeded into a 96-well microtiter plate (Nunc™) and stimulated with LPS (1 μg/mL; Sigma) in the presence or absence of each peptide at different concentrations. After 72 h of incubation, the culture supernatant was collected and cytokine concentrations measured using ELISA MAX™ Deluxe Set (BioLegend, San Diego, CA, USA), following the manufacturer’s protocol.

[3] = tested on: TNF-α production in LPS-stimulated RAW 264.7 cells; test: TNF-α production, sandwich ELISA; conditions: LPS 1 µg/mL, 72 h, mean ± SD
Experimental: as §2

[4] = tested on: PGE2 production in LPS-stimulated RAW 264.7 cells; test: PGE2 production, enzyme-immunoassay; conditions: LPS 1 µg/mL + indomethacin 10 µM, 48 h
Experimental: as §1, with “Sigma,” for “RAW 264.7 cells at 1×10^5 cells/well were stimulated with 1 μg/mL LPS (Escherichia coli 0111:B4; Sigma,”, “Where appropriate, cells were pre-incubated with the test peptide for 1 h, and washed three times with sterile PBS before incubation with LPS (1 μg/mL;” left out, “After incubation for 10 min at room temperature, 50 μL of 0.1% N-1-napthylethylenediamine dihydrochloride was added and incubated for another 10 min at room temperature.” left out

[5] = tested on: NO production in LPS-stimulated RAW 264.7 cells; test: Pre-treatment with or without wash, then LPS; NO by Griess; conditions: 10 µg/mL pre-treatment 1 h, washed, LPS 1 µg/mL 48 h
Experimental: as §1, with “Briefly, 50 μL of culture supernatant was mixed with an equal volume of 1% sulfanilamide in 5% phosphoric acid. After incubation for 10 min at room temperature, 50 μL of 0.1% N-1-napthylethylenediamine dihydrochloride was added and incubated for another 10 min at room temperature.” left out
To investigate whether the ability of KLK peptide to inhibit LPS-induced signaling was due to KLK-LPS binding, experiments were performed in which RAW 264.7 cells were pre-treated with the KLK peptide for 1 h and then thoroughly washed to remove exogenous peptide. The cells were subsequently stimulated with LPS and pro-inflammatory mediator (NO) measured in cell-free supernatant after 48 hr. […]

Compound: CC(C)C[C@@H]1NC(=O)[C@H](CCCCN)NC(=O)[C@H](CC(C)C)NC(=O)[C@H](CC(C)C)NC(=O)[C@H](CC(C)C)NC(=O)[C@H](CC(C)C)NC(=O)[C@H](CC(C)C)NC(=O)[C@H](CCCCN)NC(=O)[C@H](CC(C)C)NC(=O)[C@H](CCCCN)NC(=O)[C@H](CCCCN)NC1=O [CYCKLK] (HELM PEPTIDE1{K.L.K.L.L.L.L.L.K.L.K}$PEPTIDE1,PEPTIDE1,1:R1-11:R2$$$V2.0)
- inhibitory rate of LPS-stimulated NO production [1]: 79.26 ± 3.17%
- IC50 for IL-1β production [2]: 8.83 ± 1.31 µg/mL
- IC50 for TNF-α production [3]: 0.91 ± 0.07 µg/mL

Compound: COc1ccc2c(c1)c(CC(=O)O)c(C)n2C(=O)c1ccc(Cl)cc1 [Indomethacin]
- PGE2 ([4]; exp. 1): 783.5 pg/mL
- PGE2 ([4]; exp. 2): 716 pg/mL
- PGE2 ([4]; mean of n = 2): 749.7 pg/mL

Compound: polymyxin B [PMB]
- effect of removing exogenous compound by washing before LPS on NO inhibition [5]: significantly affected

Compound: CKLKLLLLLKLKC (disulfide 1-13 (inferred)) [SSKLK, KLK with cysteine residues added to both N and C-terminal ends]
- inhibitory rate of LPS-stimulated NO production [1]: 70.77 ± 1.55%
- IC50 for TNF-α production [3]: 1.79 ± 0.01 µg/mL
